Results from ChEMBL document CHEMBL6092206, “Discovery and Characterization of BAY-184: A New Potent and Selective Acylsulfonamide-Benzofuran In Vivo-Active KAT6AB Inhibitor” (J Med Chem, 2024).
pIC50: −log10 of the molar value. Calls of active or inactive are those of the source. The rule behind the calls is not given here.

How the values were obtained:
ZR-75-1 [1] = test: Antitumor activity against human ZR-75-1 cells xenografted in female estradiol-primed NMRI mouse assessed as reduction in H3K23 acetylation level in tumor at 100 mg/kg, po administered twice daily measured after 24 hrs by immunohistochemical analysis; format: functional, organism-based
[2] = Mutagenicity in Salmonella typhimurium TA100 by Ames test; format: toxicity; settings: salmonella enterica subsp. enterica serovar typhimurium
ZR-75-1 [3] = test: Antitumor activity against human ZR-75-1 cells xenografted in female estradiol-primed NMRI mouse assessed as reduction in H3K23 acetylation level in tumor at 100 mg/kg, po administered twice daily measured after 1 to 3 hrs by immunohistochemical analysis; format: functional, organism-based; settings: time 1-3 hrs
[4] = Volume of distribution at steady state in mouse at 0.5 mg/kg, iv; format: ADME, organism-based; settings: in vivo, read-out: Vdss
[5] = Half life in mouse at 0.5 mg/kg, iv; format: ADME, organism-based; settings: in vivo
[6] = Antiproliferative activity against human KPL-1 cells assessed as inhibition of cell growth incubated for 6 days by alamar blue staining based assay relative to control; format: functional; settings: time 6 day
HCC1806 = test: Antiproliferative activity against human HCC1806 cells assessed as inhibition of cell growth incubated for 6 days by alamar blue staining based assay relative to control; format: functional; settings: time 6 day
[7] = Plasma protein binding in mouse assessed as unbound fraction equilibrium dialysis based LC-MS/MS analysis; format: ADME, cell-free
MFM-223 = test: Antiproliferative activity against human MFM-223 cells assessed as inhibition of cell growth incubated for 6 days by alamar blue staining based assay relative to control; format: functional; settings: time 6 day
[8] = Metabolic stability in dog hepatocyte assessed as clearance measured for 2 to 90 mins by LC-MS/MS analysis; format: ADME, cell-based, Canis lupus familiaris; settings: hepatocytes, time 2-90 min
[9] = Volume of distribution at steady state in male Wistar rat at 0.5 mg/kg, iv or 1 mg/kg, po measured upto 24 hrs by LC-MS/S analysis; format: ADME, organism-based; settings: in vivo
[10] = Metabolic stability in mouse hepatocyte assessed as maximum bioavailability of the drug measured for 2 to 90 mins by LC-MS/MS analysis; format: ADME; settings: hepatocytes, time 2-90 min, read-out: Fmax
[11] = Oral bioavailability in male Wistar rat at 1 mg/kg measured upto 24 hrs by LC-MS/S analysis; format: ADME, organism-based; settings: in vivo
[12] = Mutagenicity in Salmonella typhimurium TA1537 by Ames test; format: toxicity; settings: salmonella enterica subsp. enterica serovar typhimurium
[13] = biological target: Histone acetyltransferase p300 (Homo sapiens, UniProt Q09472); test: Inhibition of GST-tagged human recombinant p300 (965 to 1810 residues) expressed in Sf9 insect cells using H3-derived peptide as substrate incubated for 30 mins in presence of AcCoA by TR-FRET assay
[14] = AUC in mouse at 0.5 mg/kg, iv; format: ADME, organism-based; settings: in vivo
[15] = Metabolic stability in rat liver microsome assessed as clearance measured for 2 to 60 mins by LC-MS/MS analysis; format: ADME; settings: microsomes, time 2-60 min
[16] = Metabolic stability in human hepatocyte assessed as maximum bioavailability of the drug measured for 2 to 90 mins by LC-MS/MS analysis; format: ADME; settings: hepatocytes, time 2-90 min, read-out: Fmax
HCC1428 = test: Antiproliferative activity against human HCC1428 cells assessed as inhibition of cell growth incubated for 6 days by alamar blue staining based assay relative to control; format: functional; settings: time 6 day
[17] = Mutagenicity in Salmonella typhimurium TA98 in presence of S9 fraction by Ames test; format: toxicity, subcellular; settings: salmonella enterica subsp. enterica serovar typhimurium
[18] = Plasma protein binding in rat assessed as unbound fraction equilibrium dialysis based LC-MS/MS analysis; format: ADME, cell-free
HaCaT = test: Cytotoxicity against human HaCaT cells incubated for 72 hrs; format: toxicity, cell-based
[19] = Metabolic stability in mouse hepatocyte assessed as clearance measured for 2 to 90 mins by LC-MS/MS analysis; format: ADME, cell-based; settings: hepatocytes, time 2-90 min
MDA-MB-231 = test: Antiproliferative activity against human MDA-MB-231 cells assessed as inhibition of cell growth incubated for 6 days by alamar blue staining based assay relative to control; format: functional; settings: time 6 day
MCF7 = test: Antiproliferative activity against human MCF7 cells assessed as inhibition of cell growth incubated for 6 days by alamar blue staining based assay relative to control; format: functional; settings: time 6 day
[20] = Tmax in male Wistar rat at 1 mg/kg, po measured upto 24 hrs by LC-MS/S analysis; format: ADME, organism-based; settings: in vivo
[21] = biological target: Voltage-gated inwardly rectifying potassium channel KCNH2 (Homo sapiens, UniProt Q12809); test: Inhibition of hERG; format: toxicity
[22] = Clearance in mouse at 0.5 mg/kg, iv; format: ADME, organism-based; settings: in vivo
[23] = Mutagenicity in Salmonella typhimurium TA1535 by Ames test; format: toxicity; settings: salmonella enterica subsp. enterica serovar typhimurium
[24] = Toxicity in female estradiol-primed NMRI mouse assessed as tolerability at 50 to 10 mg/kg, po administered twice daily measured at 2 to 3 days; format: organism-based; settings: in vivo, dose lower 50 mg/kg, time lower 2 day, dose upper 10 mg/kg, time upper 3 day
[25] = Mutagenicity in Escherichia coli WP2 uvrA by Ames test; format: toxicity
[26] = Stability in rat plasma assessed as parent compound remaining after 4 hrs; format: ADME, cell-free
[27] = Mutagenicity in Salmonella typhimurium TA98 by Ames test; format: toxicity; settings: salmonella enterica subsp. enterica serovar typhimurium
[28] = Metabolic stability in dog liver microsome assessed as clearance measured for 2 to 60 mins by LC-MS/MS analysis; format: ADME, Canis lupus familiaris; settings: microsomes, time 2-60 min
[29] = Metabolic stability in rat liver microsome assessed as maximum bioavailability of the drug measured for 2 to 60 mins by LC-MS/MS analysis; format: ADME; settings: liver microsomes, time 2-60 min, read-out: Fmax
[30] = Plasma protein binding in human assessed as unbound fraction equilibrium dialysis based LC-MS/MS analysis; format: ADME, cell-free
[31] = Half life in male Wistar rat at 0.5 mg/kg, iv measured upto 24 hrs by LC-MS/S analysis; format: ADME, organism-based; settings: in vivo
[32] = Metabolic stability in human liver microsome assessed as maximum bioavailability of the drug measured for 2 to 60 mins by LC-MS/MS analysis; format: ADME; settings: liver microsomes, time 2-60 min, read-out: Fmax
MDA-MB-361 = test: Antiproliferative activity against human MDA-MB-361 cells assessed as inhibition of cell growth incubated for 6 days by alamar blue staining based assay relative to control; format: functional; settings: time 6 day
[33] = Metabolic stability in human liver microsome assessed as clearance measured for 2 to 60 mins by LC-MS/MS analysis; format: ADME; settings: microsomes, time 2-60 min

Sequence of Histone acetyltransferase p300 (Q09472 whole entry, the tested form may be a part): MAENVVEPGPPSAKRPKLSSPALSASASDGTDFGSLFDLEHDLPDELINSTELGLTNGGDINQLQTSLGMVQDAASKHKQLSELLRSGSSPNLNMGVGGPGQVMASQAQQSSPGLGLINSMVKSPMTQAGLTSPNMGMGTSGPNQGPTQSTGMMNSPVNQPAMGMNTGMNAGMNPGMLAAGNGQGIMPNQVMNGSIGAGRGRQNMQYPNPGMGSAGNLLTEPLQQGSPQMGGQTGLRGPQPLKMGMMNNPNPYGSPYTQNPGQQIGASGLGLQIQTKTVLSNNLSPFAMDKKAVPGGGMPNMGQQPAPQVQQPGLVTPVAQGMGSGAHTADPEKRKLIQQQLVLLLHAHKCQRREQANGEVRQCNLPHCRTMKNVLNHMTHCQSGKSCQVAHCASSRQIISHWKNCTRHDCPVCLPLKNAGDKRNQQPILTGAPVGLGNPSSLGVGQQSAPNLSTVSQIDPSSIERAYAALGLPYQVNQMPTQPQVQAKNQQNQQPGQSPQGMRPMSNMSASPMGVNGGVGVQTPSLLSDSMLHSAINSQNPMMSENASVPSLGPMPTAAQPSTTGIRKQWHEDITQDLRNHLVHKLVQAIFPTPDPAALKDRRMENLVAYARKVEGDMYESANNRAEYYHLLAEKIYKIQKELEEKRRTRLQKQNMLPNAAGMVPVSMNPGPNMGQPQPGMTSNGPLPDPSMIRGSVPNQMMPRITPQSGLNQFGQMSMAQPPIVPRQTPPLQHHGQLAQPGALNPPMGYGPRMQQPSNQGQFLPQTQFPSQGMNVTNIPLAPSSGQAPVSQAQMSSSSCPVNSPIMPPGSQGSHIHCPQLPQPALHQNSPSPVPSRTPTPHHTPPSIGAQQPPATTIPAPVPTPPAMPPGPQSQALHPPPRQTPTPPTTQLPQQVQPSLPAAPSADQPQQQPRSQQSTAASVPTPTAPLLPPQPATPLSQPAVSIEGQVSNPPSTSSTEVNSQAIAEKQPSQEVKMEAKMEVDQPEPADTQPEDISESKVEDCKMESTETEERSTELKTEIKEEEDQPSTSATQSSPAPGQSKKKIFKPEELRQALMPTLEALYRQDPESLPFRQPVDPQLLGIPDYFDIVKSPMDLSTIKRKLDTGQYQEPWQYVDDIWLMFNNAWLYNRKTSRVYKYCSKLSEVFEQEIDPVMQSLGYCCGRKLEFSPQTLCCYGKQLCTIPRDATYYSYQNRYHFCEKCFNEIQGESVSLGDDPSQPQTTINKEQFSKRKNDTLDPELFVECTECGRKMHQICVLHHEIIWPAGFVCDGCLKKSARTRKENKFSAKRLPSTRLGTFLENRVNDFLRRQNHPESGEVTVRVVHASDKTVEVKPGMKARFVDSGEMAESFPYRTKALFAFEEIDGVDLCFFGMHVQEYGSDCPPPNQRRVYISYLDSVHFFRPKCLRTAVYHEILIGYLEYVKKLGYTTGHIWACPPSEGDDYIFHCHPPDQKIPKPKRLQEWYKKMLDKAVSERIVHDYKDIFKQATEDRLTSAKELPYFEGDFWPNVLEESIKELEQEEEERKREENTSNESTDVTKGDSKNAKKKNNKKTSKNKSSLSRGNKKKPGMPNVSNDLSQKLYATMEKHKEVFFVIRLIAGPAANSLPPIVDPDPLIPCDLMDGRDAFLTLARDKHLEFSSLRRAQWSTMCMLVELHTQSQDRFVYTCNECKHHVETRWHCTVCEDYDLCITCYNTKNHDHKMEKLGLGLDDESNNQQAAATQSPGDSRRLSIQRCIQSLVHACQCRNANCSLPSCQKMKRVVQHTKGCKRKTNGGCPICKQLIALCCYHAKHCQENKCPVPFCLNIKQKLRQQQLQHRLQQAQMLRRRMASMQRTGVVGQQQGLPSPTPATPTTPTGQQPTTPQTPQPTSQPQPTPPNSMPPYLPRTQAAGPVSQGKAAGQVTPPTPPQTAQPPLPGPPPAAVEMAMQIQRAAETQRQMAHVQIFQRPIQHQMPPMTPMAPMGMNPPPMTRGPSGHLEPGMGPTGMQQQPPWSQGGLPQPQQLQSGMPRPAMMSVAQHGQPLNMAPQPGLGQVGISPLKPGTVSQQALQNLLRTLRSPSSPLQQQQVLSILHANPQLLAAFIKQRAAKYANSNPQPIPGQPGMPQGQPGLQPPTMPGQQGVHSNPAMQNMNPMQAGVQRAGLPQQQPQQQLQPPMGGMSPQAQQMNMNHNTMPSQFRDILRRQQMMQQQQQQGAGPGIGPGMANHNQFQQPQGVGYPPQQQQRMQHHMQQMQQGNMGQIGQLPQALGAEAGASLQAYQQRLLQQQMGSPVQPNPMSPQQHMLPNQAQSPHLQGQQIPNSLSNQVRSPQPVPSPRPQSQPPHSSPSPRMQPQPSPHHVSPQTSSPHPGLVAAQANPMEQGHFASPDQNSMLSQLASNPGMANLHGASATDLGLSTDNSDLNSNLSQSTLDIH
Sequence of Voltage-gated inwardly rectifying potassium channel KCNH2 (Q12809 whole entry): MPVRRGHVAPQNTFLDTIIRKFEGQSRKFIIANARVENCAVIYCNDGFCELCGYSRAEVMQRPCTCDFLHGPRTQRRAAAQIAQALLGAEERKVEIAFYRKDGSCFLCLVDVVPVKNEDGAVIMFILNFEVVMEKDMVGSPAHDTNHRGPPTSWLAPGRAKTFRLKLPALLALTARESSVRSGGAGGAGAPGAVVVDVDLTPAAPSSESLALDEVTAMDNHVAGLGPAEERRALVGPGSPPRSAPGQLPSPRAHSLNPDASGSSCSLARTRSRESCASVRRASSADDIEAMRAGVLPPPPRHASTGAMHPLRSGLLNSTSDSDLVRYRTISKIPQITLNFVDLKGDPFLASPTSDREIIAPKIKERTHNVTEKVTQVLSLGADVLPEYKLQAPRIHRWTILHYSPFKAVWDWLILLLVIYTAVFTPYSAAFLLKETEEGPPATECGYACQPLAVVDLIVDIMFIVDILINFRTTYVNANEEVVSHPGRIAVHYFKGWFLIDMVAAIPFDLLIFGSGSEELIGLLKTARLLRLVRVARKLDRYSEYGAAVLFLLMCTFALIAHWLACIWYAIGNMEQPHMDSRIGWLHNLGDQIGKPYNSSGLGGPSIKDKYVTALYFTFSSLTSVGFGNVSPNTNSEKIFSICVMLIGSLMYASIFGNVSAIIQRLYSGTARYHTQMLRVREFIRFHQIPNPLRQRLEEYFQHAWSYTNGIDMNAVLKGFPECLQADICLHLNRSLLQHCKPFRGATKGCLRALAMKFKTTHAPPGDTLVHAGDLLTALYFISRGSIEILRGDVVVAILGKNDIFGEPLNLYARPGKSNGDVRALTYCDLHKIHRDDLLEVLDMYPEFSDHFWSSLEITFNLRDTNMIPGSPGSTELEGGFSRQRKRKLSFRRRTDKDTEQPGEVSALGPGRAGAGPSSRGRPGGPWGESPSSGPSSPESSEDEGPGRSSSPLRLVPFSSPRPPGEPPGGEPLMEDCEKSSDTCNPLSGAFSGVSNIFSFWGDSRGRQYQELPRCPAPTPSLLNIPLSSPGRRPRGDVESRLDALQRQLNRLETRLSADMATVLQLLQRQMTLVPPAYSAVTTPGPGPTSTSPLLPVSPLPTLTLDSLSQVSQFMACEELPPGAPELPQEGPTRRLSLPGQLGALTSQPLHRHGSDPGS

SMILES: CN(C)c1ccc2cc(C(=O)NS(=O)(=O)c3ccccc3-c3ccccc3)oc2c1
- Activity (ZR-75-1 [1]): Active
- Activity [2]: Non-toxic
- Activity (ZR-75-1 [3]): Active
- Vd [4]: 0.32 L/kg
- half-life [5]: 1.3 h
- inhibition (INH) [6]: 30%
- inhibition (INH) (HCC1806): 0%
- Fu [7]: 0.31%
- inhibition (INH) (MFM-223): 61%
- CLH [8]: 0.99 L/h/kg
- Vdss [9]: 0.13 L/kg
- Fh [10]: 33%
- bioavailability [11]: 60%
- Activity [12]: Non-toxic
- pIC50 [13]: < 5.00
- AUC [14]: 2.5 kg·h/L
- CLH [15]: 3 L/h/kg
- Fh [16]: 25%
- inhibition (INH) (HCC1428): 51%
- Activity [17]: Non-toxic
- Fu [18]: 0.048%
- Activity (HaCaT): Non-toxic
- CLH [19]: 3.6 L/h/kg
- inhibition (INH) (MDA-MB-231): 0%
- inhibition (INH) (MCF7): 66%
- Tmax [20]: 0.5 h
- inhibition (INH) [21]: Not_active
- clearance [22]: 0.56 L/h/kg
- Activity [23]: Non-toxic
- Activity [24]: Non-toxic
- Activity [25]: Non-toxic
- Stability [26]: Stable
- Activity [27]: Non-toxic
- CLH [28]: 0.41 L/h/kg
- Fh [29]: 28%
- Fu [30]: 0.042%
- t1/2 [31]: 0.94 h
- Fh [32]: 41%
- inhibition (INH) (MDA-MB-361): 22%
- CLH [33]: 0.77 L/h/kg
